{"source": "patent US4851211A", "about": "“LHRH analog formulations” (Abbott Laboratories, priority 1986, dated 1989)", "key": {"[1]": {"conditions": "no counterion"}, "[2]": {"assay": "Bioabsorption testing: leuprolide levels after inhalation of solution aerosol (radioimmunoassay)", "conditions": "aerosol compared with comparable intravenous dose", "experimental": "Healthy male beagle dogs (9-18 months old) were provided with free access to food during entire study. There were three dogs of each sex in each treatment group. Body weight, food consumption and other pertinent clinical signs were monitored at a regular basis during the study. […] Drug administration was carried out through 2 weeks. Leuprolide plasma concentrations was determined during day 1 of the study in order to evaluate bioabsorption of leuprolide from the aerosol. Blood samples of approximately 2-3 ml were obtained from the jugular vein and allowed to clot. After centrifugation, the serum fraction was removed and assayed for leuprolide using a radioimmunoassay technique. Relative absorption of leuprolide via the inhalation route of administration was estimated using mean historical data from representative intravenously administered formulations."}, "[3]": {"conditions": "ionizable site of leuprolide; cited from earlier work"}}, "data": [{"smiles": "CCNC(=O)[C@@H]1CCCN1C(=O)[C@H](CCCNC(=N)N)NC(=O)[C@H](CC(C)C)NC(=O)[C@@H](CC(C)C)NC(=O)[C@H](Cc1ccc(O)cc1)NC(=O)[C@H](CO)NC(=O)[C@H](Cc1c[nH]c2ccccc12)NC(=O)[C@H](Cc1c[nH]cn1)NC(=O)[C@@H]1CCC(=O)N1", "note": "[leuprolide, 5-Oxo-L-prolyl-L-histidyl-L-tryptophanyl-L-seryl-L-tyrosyl-D-leucyl-L-leucyl-L-arginyl-L-prolylethylamide acetate]", "values": [{"measurement": "solubility of leuprolide", "setting": "[1]; mixtures of ethyl alcohol and fluorocarbons", "value": "~3000", "unit": "µg/mL"}, {"measurement": "equilibrium solubility of leuprolide", "setting": "[1]; mixtures of fluorocarbons, ethyl alcohol and water", "value": "~5000", "unit": "µg/mL"}, {"measurement": "plasma peak concentration", "setting": "[2]", "value": "approximately equals that of a comparable dose administered intravenously"}, {"measurement": "pKa, guanidine nitrogen of arginine", "setting": "[3]", "value": "approximately 13.0"}, {"measurement": "pKa, imidazolyl nitrogen of histidine", "setting": "[3]", "value": "approximately 6.0"}, {"measurement": "pKa, phenolic hydroxyl of tyrosine", "setting": "[3]", "value": "approximately 10.0"}]}]}
